Paper PMC11306511, “Combining VPS34 inhibitors with STING agonists enhances type I interferon signaling and anti‐tumor efficacy” (Molecular Oncology, 2024)

Experiments:
[1] = parameters: method as in PMID 34070756; conditions: cited from earlier work
[2] = system: B16-F10 tumors; assay: Tumor growth inhibition study, B16-F10 tumor-bearing mice; assay type: in vivo, mouse; conditions: B16-F10 in C57BL/6 mice; SB02024 20 mg·kg^−1 oral daily day 7-16; ADU-S100 10 μg intratumoral days 9, 11, 13, 15
Source text: Study protocols were approved by the Institutional Animal Care and Use Committee of CrownBio in China (AN‐1903‐05‐313) or the LIH's animal welfare committee in Luxembourg (agreement LECR‐2018‐12). Mice were handled according to European Union guidelines, adhering to the principles of replacement, reduction, and refinement (3Rs). Animals were housed in appropriate accommodations conducive to their well‐being, with provisions for housing, feeding, and environmental enrichment to meet their physical and behavioral needs. Highly skilled personnel were involved in carrying out procedures related to the animal experiments to ensure proper care and handling. Female 6 to 8‐week‐old BALB/c (supplied by Shanghai Lingchang Biotechnology Co., Shanghai, China; n = 14) or C57BL/6 mice (supplied by Janvier Labs, Le Genest‐Saint‐Isle, France; n = 40) were injected into the right flank with 1 × 10^6 Renca or 0.2 × 10^6 B16‐F10 cells, respectively, resuspended in 100 μL PBS (day 0). When tumors were palpable (day 9 for Renca, day 7 for B16‐F10 tumors), mice were randomly assigned into two groups for the Renca model with n = 6 (vehicle) and n = 8 (SB02024) or four groups for the B16‐F10 model with n = 10. […] Tumor growth was measured using a caliper every other day and estimated as follows: volume (cm^3) = (width)^2 × length × 0.5.

Nc1ncnc2c1ncn2[C@@H]1O[C@@H]2COP(=O)([S-])O[C@@H]3[C@H](O)[C@@H](COP([O-])(=S)O[C@H]2[C@H]1O)O[C@H]3n1cnc2c(N)ncnc21.[Na+].[Na+] (some centres unmarked) [ADU-S100, reference compound]
anti-tumor efficacy in clinical trials [1]: only limited | % TGI (percent tumor growth inhibition compared to vehicle control) [2]: 36%
